Laboratory results as given in patent US20240148749A1 (priority 2021, published 2024).

Legend:
Format in all cases: in vivo, mouse
brain tissue = assay: Cytokine and chemokine levels in mice brain at 21 days after CLP (Luminex); details: CLP vs control × MnTBAP vs placebo
Method: (§1) We used peritonitis induced by CLP as a model of sepsis (Rittirsch et al., 2009). Briefly, animals were anesthetized with ketamine (Imalgene® 1000 100 mg/kg, Merial, France) and Xylazine (Rompun® 2% 20 mg/kg, Bayer, Germany) prior to surgery. After laparotomy, caecum was ligatured at the distal third with a 4.0 suture and the distal part was perforated twice with a 21 Gauge needle.
(§2) MnTBAP is commercially available: it is for example manufactured by Sigma-Aldrich, Calbiochem, etc. For use it is dissolved following the guidance provided by the manufacturer.
Brain: snap frozen brain samples (n=6 per condition and per time point) were thawed, lysed by mechanical agitation (lysing matrix), and supernatant was aliquoted and stored at −80° C. until analysis.
These samples were processed for Luminex® multiple cytokine and chemokine analysis (Bio-Plex® Pro™ Mouse Cytokine Standard 23-flex, Group I and Standard 9-flex, Group II). Fifty microlitres of sample was analyzed on the Bio-flex system (Bio-Rad) in accordance with the manufacturers instructions. Data analyses for all assays were performed using the Bio-flex Manager software. […] Normalization was done by weight of the frozen brain sample.
The data represent the level of protein expression in pg mg^−1 of brain tissue using Luminex®. Control mice were non-operated but anesthetized. Median values of n=5 mice per group are represented. […]

Cd11b+ microglial cells = assay: Gene expression of microglial immuno-phenotype markers (RT-qPCR) in Cd11b+ microglial cells sorted from brain at 21 days
Method: as §1, §2
Brains were collected for cell dissociation and Cdllb-positive cell separation using a magnetic coupled antibody (MACS® Technology), according to the manufacturer's protocol (Miltenyi Biotec, Bergisch Gladbach, Germany) and as previously described (Schang et al., 2014). In brief, mice were intracardially perfused with NaCl 0,9%. The brains are then dissociated using the Neural Tissue Dissociation Kit containing trypsin and the gentleMACS Octo Dissociator with Heaters. From the resulting brain homogenate, cd11 b-positive cells were enriched using the anti-cd11 b MicroBeads. After elution the isolated cells were centrifuged for 5 min at 200G and conserved at −80° C.
Total RNA was isolated from cells using the RNAeasy Micro kit (Qiagen), and reverse-transcribed using Superscript® III Reverse transcriptase (Invitrogen). Real-time quantitative PCR was performed in duplicate for each sample using Power Sybr Green PCR Master Mix (Applied Biosystems) and the rate of dye incorporation was monitored using the StepOne™ Plus RealTime PCR system (Applied Biosystems). Data were analyzed by StepOne Plus RT PCR software v2.1 and Microsoft excel. Amplification specificity was assessed with a melting curve analysis. TBP transcript levels were used for normalisation of each target (=ΔCT). Real-time PCR CT values were analyzed using the 2^−(ΔCt) method to calculate the fold expression (Schmittgen et al., 2008). The data are presented as relative mRNA units with respect to control group (expressed as fold over control value). Primer sequences available upon request.
We have adopted nomenclature consistent with previous work in microglia (Chhor et al., 2013). We distinguished 3 types of phenotypes according to the mRNA expression levels of markers listed in brackets: pro-inflammatory phentoype (Ptgs2, Cd32, Cd86), alternative phenotype (Lgals3, Igf1 and CD206) and immunoregulatory phenotype (II1rn, II4ra, Socs3).
Quantification of pro-inflammatory markers (CD32, CD86 and Ptgs2 mRNA), anti-inflammatory markers (Lgals3, IGF1 and CD206 mRNA) and immuno-regulator markers (IL1-RA, IL4-Rα and SOCS3 mRNA) by RT-qPCR in Cd11b+ microglial cells magnetically sorted from the brain at 21 days. Control mice were non-operated but anesthetized. The data shown represent median values of n=5 mice per group. Two-way analyses of variance (ANOVAs) CLP vs Control×MnTBAP vs Placebo were performed. […] Data are represented as fold changes using the 2-ΔΔCT method.

CLP mice = assay: Survival after cecal ligation and puncture (CLP) model of sepsis; details: CLP-MnTBAP mice, 24 h after CLP; MnTBAP 10 mg/kg IP every 12 h for 48 h
Method: A log-rank (Mantel-Cox) p value for trend was calculated.
as §1
For use it is dissolved following the guidance provided by the manufacturer.
Clinical score was assessed 6, 12 and 24 hours and 21 days after CLP using a modified SmithKline Beecham, Harwell, Imperial College and Royal London Hospital phenotype assessment (SHIRPA) (Rogers et al., 1997) of the maximum score of fourteen. Weight, temperature and locomotor activity using an open field box were measured at the same time points. We determined survival rate twice a day for 21 days after CLP. The symptoms included in the a modified SmithKline Beecham, Harwell, Imperial College and Royal London Hospital phenotype assessment (SHIRPA) are tremors, periorbital exudates, piloerection, lethargy, vocalisation, positional passivity, no escapement to threat, long transfer arousal and diarrhoea. Each condition was scored from 0 to 2.
Experimental protocols were conducted in accordance with the French and European regulations on Animal Welfare and with Public Health Service recommendations. The experiments were performed on C57BL/6JRj mice (male and female) purchased from Janvier Laboratory. Mice were housed in cages in groups of 7, in a temperature (22±1.5° C.) and humidity-controlled environment, with a 12 h light/dark cycle. All animals used in the study were between 10 and 12 weeks old. Sample-size estimates for animal experiments were based on prior animal-modelling studies used in the Unit for the investigation of caecal ligation and puncture (CLP).
At the end, two groups were compared: CLP-Placebo, CLP-BMX-010. We determined survival rate twice a day for 4 days after CLP.”

**Q.** Which “measured brain tissue cytokines, two-way ANOVA” value (brain tissue) does the source give for `O=C(O)c1ccc(/C2=C3\C=CC(=N3)/C(c3ccc(C(=O)O)cc3)=c3/cc/c4[n]3[Mn]([Cl])[n]3c2ccc3/C(c2ccc(C(=O)O)cc2)=C2/C=CC(=N2)\C=4c2ccc(C(=O)O)cc2)cc1` [MnTBAP, Manganese (III) tetrakis (4-benzoic acid)porphyrin chloride] here?
**A.** Its value is “did not show any CLP vs control×MnTBAP vs placebo interaction, or difference linked to condition or treatment between the groups”.

**Q.** And the “IL1β expression in microglial cells” value (Cd11b+ microglial cells; CLP-MnTBAP group vs CLP-placebo group, p=0.01, did not differ from Control-placebo)?
**A.** Its value is “significantly lower”.

**Q.** And the “Lgals3 (M2a) gene expression in microglial cells” value (Cd11b+ microglial cells; CLP-MnTBAP group vs CLP-placebo group, p=0.023, did not differ from Control-placebo)?
**A.** Its value is “significantly lower”.

**Q.** And the microglial immunophenotype (Cd11b+ microglial cells; MnTBAP alone (control mice))?
**A.** Its microglial immunophenotype is “did not alter”.

**Q.** What about the microglial immunoprofile (Cd11b+ microglial cells; septic mice) of the same molecule?
**A.** The microglial immunoprofile was “shifts microglial immunoprofile from a neurotoxic toward a neuroprotective phenotype”.

**Q.** And the “Ptgs2 (M1 marker) transcripts in microglial cells” value (Cd11b+ microglial cells; septic mice, MnTBAP compared to the placebo group, p=0.026, did not differ from Control-placebo)?
**A.** Its value is “significantly reduced”.

**Q.** What about the “IL1RA (M2b marker) transcripts in microglial cells” value (Cd11b+ microglial cells; septic mice, MnTBAP compared to the placebo group, p=0.047, did not differ from Control-placebo) of the same molecule?
**A.** The value was “significantly reduced”.

**Q.** What about the mice alive (CLP mice) of the same molecule?
**A.** Its mice alive is 66%.
